Converted amounts (≈) assume the structure as drawn.
Key:
S1 = assay: MIC determination (bacteria), strain S1; type: cell-based, S. aureus; settings: 2-fold broth dilution
Description: (§1) MIC determination (bacteria); MICs were determined based on Clinical and Laboratory Standards Institute (CLSI) methodology (Methods for dilution antimicrobial susceptibility tests for bacteria that grow aerobically; Approved Standard—seventh edition. 2006, M7-A7, CLSI, Wayne Pa.) by a 2-fold broth dilution technique in Mueller Hinton (pH7.4 Biorad). For S. pneumoniae, the medium was supplemented with 2.5% laked horse blood. For H. influenzae, the medium was haemophilus test medium (H.T.M.). Overnight cultures were diluted to obtain the final inoculum of 10^5 cfu/well. Incubation was 37° C. overnight in ambient air. The MIC was defined as the lowest concentration which inhibited all visual growth and expressed in μg/ml. For each bacterial species, all of the molecules were tested in the same experiment in order to give a head-to-head comparison.

P1 = assay: MIC determination (bacteria), strain P1; type: cell-based, S. pneumoniae; settings: 2-fold broth dilution
Description: as §1

[1] = tested on: mammalian_red blood cell membrane; assay: In vitro mammalian red blood cell membrane lysis activity; type: cell-based; settings: Active or inactive at 100 μM
Description: (§2) These properties can be determined according to techniques that are well known in the art.

S. aureus membrane = assay: In vitro activity in depolarization of S. aureus membrane; type: cell-based; settings: read-out: DEP (IC50)
Description: as §2

E2 = assay: MIC determination (bacteria), strain E2; type: cell-based, enterococcus; settings: 2-fold broth dilution
Description: as §1

P9B = assay: MIC determination (bacteria), strain P9B; type: cell-based, S. pneumoniae; settings: 2-fold broth dilution
Description: as §1

[2] = aqueous solubility at pH 7.4; type: physicochemical; settings: aqueous solubility at pH 7.4 (water with 2% DMSO)
Description: as §2

[3] = tested on: S2 (S. aureus 2, MRSA in vivo); assay: MIC determination (bacteria), strain S2; type: cell-based; settings: 2-fold broth dilution
Description: as §1

P9 = assay: MIC determination (bacteria), strain P9; type: cell-based, S. pneumoniae; settings: 2-fold broth dilution
Description: as §1

S4 = assay: MIC determination (bacteria), strain S4; type: cell-based, S. aureus; settings: 2-fold broth dilution
Description: as §1

H4 = assay: MIC determination (bacteria), strain H4; type: cell-based, H. influenzae; settings: haemophilus test medium
Description: as §1

S26 = assay: MIC determination (bacteria), strain S26; type: cell-based, S. aureus; settings: 2-fold broth dilution
Description: as §1

H3 = assay: MIC determination (bacteria), strain H3; type: cell-based, H. influenzae; settings: haemophilus test medium
Description: as §1

[4] = tested on: human peripheral blood cells; assay: in vitro toxicities human peripheral blood cells; type: cell-based; settings: human peripheral blood cells
Description: as §2

E1 = assay: MIC determination (bacteria), strain E1; type: cell-based, enterococcus; settings: 2-fold broth dilution
Description: as §1

[5] = tested on: human embryonic kidney 293 cells; assay: in vitro toxicities against human embryonic kidney 293 cells; type: cell-based; settings: human embryonic kidney 293 cells
Description: as §2

E. Coli RNAP = E. Coli RNAP (Escherichia coli, UniProt P0A8T7+P0A8V2); assay: In vitro activity against E. Coli RNAP; type: biochemical
Description: as §2

Chain of E. Coli RNAP (P0A8V2 whole entry): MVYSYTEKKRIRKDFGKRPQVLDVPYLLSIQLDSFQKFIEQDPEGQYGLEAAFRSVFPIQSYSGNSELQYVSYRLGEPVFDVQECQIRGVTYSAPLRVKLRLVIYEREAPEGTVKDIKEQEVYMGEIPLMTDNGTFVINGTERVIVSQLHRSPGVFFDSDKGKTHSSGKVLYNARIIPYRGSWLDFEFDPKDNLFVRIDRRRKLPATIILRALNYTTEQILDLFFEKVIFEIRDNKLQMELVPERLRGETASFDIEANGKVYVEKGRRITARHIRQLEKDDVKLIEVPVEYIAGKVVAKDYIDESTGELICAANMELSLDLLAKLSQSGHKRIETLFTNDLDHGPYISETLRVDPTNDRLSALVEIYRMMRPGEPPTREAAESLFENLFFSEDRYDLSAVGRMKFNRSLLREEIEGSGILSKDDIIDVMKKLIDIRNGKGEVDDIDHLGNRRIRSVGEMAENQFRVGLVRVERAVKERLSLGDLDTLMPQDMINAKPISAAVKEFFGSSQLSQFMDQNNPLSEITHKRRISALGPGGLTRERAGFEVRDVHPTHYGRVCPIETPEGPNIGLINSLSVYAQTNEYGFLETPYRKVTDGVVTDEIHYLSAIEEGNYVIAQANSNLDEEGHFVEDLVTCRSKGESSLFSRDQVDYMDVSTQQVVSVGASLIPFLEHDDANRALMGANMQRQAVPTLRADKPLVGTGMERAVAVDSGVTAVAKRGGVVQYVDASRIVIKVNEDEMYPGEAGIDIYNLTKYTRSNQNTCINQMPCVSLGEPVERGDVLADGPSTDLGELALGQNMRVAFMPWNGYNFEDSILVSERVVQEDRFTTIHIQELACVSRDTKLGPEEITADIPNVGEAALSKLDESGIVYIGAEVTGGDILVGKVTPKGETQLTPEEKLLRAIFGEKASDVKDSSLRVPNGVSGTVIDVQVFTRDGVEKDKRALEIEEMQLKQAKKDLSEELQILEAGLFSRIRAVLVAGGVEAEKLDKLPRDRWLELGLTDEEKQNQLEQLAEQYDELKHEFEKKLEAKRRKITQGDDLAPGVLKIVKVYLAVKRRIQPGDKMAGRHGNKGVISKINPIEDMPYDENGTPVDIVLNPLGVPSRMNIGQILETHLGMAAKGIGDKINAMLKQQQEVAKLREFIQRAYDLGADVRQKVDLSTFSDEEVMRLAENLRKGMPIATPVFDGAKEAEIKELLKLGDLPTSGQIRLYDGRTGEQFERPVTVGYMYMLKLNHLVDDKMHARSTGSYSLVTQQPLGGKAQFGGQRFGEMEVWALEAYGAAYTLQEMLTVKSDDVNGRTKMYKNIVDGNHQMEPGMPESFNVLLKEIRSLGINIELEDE
Chain of E. Coli RNAP (P0A8T7 whole entry): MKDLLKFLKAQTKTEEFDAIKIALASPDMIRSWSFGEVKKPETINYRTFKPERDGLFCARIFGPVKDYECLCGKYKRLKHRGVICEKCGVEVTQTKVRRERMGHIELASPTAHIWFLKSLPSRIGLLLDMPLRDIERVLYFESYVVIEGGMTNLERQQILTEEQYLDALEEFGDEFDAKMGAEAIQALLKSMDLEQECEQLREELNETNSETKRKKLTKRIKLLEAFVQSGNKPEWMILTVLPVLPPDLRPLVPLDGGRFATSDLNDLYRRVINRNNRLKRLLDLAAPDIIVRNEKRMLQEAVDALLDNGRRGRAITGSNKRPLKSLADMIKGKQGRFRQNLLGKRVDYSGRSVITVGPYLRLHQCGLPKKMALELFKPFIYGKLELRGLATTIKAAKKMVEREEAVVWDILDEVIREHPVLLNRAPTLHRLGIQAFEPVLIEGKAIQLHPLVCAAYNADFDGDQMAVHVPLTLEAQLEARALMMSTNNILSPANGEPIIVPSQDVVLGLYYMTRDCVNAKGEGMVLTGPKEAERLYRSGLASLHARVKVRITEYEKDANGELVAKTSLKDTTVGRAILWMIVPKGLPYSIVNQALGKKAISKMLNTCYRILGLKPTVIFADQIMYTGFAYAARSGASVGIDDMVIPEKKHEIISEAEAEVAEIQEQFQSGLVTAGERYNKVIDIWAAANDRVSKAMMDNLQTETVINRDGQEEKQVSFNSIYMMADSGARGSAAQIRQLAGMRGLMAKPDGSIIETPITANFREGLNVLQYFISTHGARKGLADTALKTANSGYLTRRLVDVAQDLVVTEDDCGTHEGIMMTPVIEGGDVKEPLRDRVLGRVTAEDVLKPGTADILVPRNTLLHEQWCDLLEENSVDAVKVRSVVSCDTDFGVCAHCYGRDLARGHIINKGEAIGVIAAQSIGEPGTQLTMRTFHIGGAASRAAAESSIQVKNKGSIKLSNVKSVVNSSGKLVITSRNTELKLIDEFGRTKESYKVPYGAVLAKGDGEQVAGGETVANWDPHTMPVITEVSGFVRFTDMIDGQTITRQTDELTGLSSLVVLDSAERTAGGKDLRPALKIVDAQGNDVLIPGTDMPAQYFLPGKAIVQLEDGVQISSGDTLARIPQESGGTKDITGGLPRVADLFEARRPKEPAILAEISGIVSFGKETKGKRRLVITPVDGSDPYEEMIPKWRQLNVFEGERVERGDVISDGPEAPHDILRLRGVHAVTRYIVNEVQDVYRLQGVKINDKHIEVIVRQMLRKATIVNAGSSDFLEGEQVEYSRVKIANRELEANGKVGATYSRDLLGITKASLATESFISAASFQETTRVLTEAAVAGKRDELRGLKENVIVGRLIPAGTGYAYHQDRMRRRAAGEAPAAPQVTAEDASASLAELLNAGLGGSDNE
Chain of E. Coli RNAP (P0A7Z4 whole entry partner): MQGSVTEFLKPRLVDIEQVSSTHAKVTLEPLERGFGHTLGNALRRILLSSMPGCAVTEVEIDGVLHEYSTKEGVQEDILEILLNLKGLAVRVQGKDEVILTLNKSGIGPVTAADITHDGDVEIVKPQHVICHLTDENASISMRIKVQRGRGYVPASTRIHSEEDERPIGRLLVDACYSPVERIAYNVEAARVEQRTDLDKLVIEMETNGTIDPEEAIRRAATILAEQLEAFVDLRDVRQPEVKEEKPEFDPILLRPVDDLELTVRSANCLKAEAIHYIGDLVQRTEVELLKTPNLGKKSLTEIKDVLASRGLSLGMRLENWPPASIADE
Chain of E. Coli RNAP (P0A800 whole entry partner): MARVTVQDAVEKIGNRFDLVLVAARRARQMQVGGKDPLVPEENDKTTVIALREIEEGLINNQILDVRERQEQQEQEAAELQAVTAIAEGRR

Row | Structure (SMILES) | RBC membrane lysis activity (active/inactive) [1] | IC50 (S. aureus membrane) [µM] | SOL [2] [µM] | PMBC (LD50, μM) [4] [µM] | Hek293 (LD50, μM) [5] [µM] | MIC S1 (S1; Table 2) [µg/mL] | MIC P1 (P1; Table 2) [µg/mL] | MIC E2 (E2; Table 2) [µg/mL] | MIC P9B (P9B; Table 2) [µg/mL] | MIC S2 ([3]; Table 2) [µg/mL] | MIC P9 (P9; Table 2) [µg/mL] | MIC S4 (S4; Table 2) [µg/mL] | MIC H4 (H4; Table 2 and its footnote f) [µg/mL] | MIC S26 (S26; Table 2) [µg/mL] | MIC H3 (H3; Table 2) [µg/mL] | MIC E1 (E1; Table 2) [µg/mL] | IC50 (E. Coli RNAP) [µM] | further results
1 | CCCCCCCCCC(O)=C1C(=O)C(CCSC)N(C(=O)Cc2cccs2)C1=O (centres unmarked) [24m] | Active | > 100 | >300 | 90.9 | 30.3 |  |  |  |  |  |  |  |  |  |  |  |  | MIC S1 (S1; Table 1): 2 µg/mL (≈ 4.43 µM); MIC P1 (P1; Table 1): 0.5 µg/mL (≈ 1.11 µM); MIC E2 (E2; Table 1): 0.5 µg/mL (≈ 1.11 µM); MIC P9B (P9B; Table 1): 4 µg/mL (≈ 8.86 µM); MIC S2 ([3]; Table 1): 2 µg/mL (≈ 4.43 µM); MIC P9 (P9; Table 1): 0.25 µg/mL (≈ 0.554 µM); MIC S4 (S4; Table 1): 2 µg/mL (≈ 4.43 µM); MIC H4 (H4; Table 1): 4 µg/mL (≈ 8.86 µM); MIC S26 (S26; Table 1): 4 µg/mL (≈ 8.86 µM); MIC H3 (H3; Table 1): 16 µg/mL (≈ 35.4 µM); MIC E1 (E1; Table 1): 2 µg/mL (≈ 4.43 µM)
2 | CCCCCCCCCC(O)=C1C(=O)CCN(C(=O)c2ccc(OC)cc2)C1=O [25d] | Active | 69 | 150 to 300 | 90.9 | 90.9 |  |  |  |  |  |  |  |  |  |  |  |  | MIC S1 (S1; Table 1): 8 µg/mL (≈ 19.9 µM); MIC P1 (P1; Table 1): 2 µg/mL (≈ 4.98 µM); MIC E2 (E2; Table 1): 4 µg/mL (≈ 9.96 µM); MIC P9B (P9B; Table 1): 8 µg/mL (≈ 19.9 µM); MIC S2 ([3]; Table 1): 4 µg/mL (≈ 9.96 µM); MIC P9 (P9; Table 1): 2 µg/mL (≈ 4.98 µM); MIC S4 (S4; Table 1): 4 µg/mL (≈ 9.96 µM); MIC H4 (H4; Table 1): 8 µg/mL (≈ 19.9 µM); MIC S26 (S26; Table 1): 8 µg/mL (≈ 19.9 µM); MIC H3 (H3; Table 1): 64 µg/mL (≈ 159 µM); MIC E1 (E1; Table 1): 4 µg/mL (≈ 9.96 µM)
3 | CCCCCCC(=O)N1CC(=O)C(=C(O)CC2CC3CCC2C3)C1=O (centres unmarked) [27a] | Inactive^d | > 100 |  | 90.9 | 90.9 | 1 (≈ 2.88 µM) | 1 (≈ 2.88 µM) | 2 (≈ 5.76 µM) | 4 (≈ 11.5 µM) | 2 (≈ 5.76 µM) | 0.5 (≈ 1.44 µM) | 2 (≈ 5.76 µM) | 1 (≈ 2.88 µM) | 4 (≈ 11.5 µM) | 4 (≈ 11.5 µM) | 1 (≈ 2.88 µM) |  | 
4 | CCCCCCC(=O)N1CC(=O)C(=C(O)CCCC2CCCCC2)C1=O [27c] |  | > 100 | >200 | 90.9 | 30.3 | 0.25 (≈ 0.688 µM) | 0.12 (≈ 0.33 µM) | 0.12 (≈ 0.33 µM) | 2 (≈ 5.5 µM) | 1 (≈ 2.75 µM) | <0.06 | 0.5 (≈ 1.38 µM) | 1 (≈ 2.75 µM) | 1 (≈ 2.75 µM) | 2 (≈ 5.5 µM) | 0.5 (≈ 1.38 µM) | > 100 | 
5 | CCCCCCC(=O)N1CC(=O)C(=C(O)CC(C)CC(C)(C)C)C1=O (centres unmarked) [27h] |  |  | 150 to 300 | 90.9 | 30.3 | 0.25 (≈ 0.711 µM) | <0.06 | 0.25 (≈ 0.711 µM) | 1 (≈ 2.85 µM) | 0.5 (≈ 1.42 µM) | <0.06 | 0.5 (≈ 1.42 µM) | 2 (≈ 5.69 µM) | 0.5 (≈ 1.42 µM) | 2 (≈ 5.69 µM) | 0.25 (≈ 0.711 µM) | > 100 | 
6 | CCCCCCC(=O)N1CC(=O)C(=C(O)CCCOc2ccc(Cl)cc2C)C1=O [28h] |  |  | >300 | 90.9 | 30.3 | 1 (≈ 2.37 µM) | 0.5 (≈ 1.19 µM) | 0.5 (≈ 1.19 µM) | 4 (≈ 9.48 µM) | 2 (≈ 4.74 µM) | 0.5 (≈ 1.19 µM) | 4 (≈ 9.48 µM) | 4 (≈ 9.48 µM) | 4 (≈ 9.48 µM) | 8 (≈ 19 µM) | 0.5 (≈ 1.19 µM) | 33 | 
7 | CC(C)CC1C(=O)C(=C(O)CCCCCc2ccccc2)C(=O)N1C(=O)c1ccccc1 (centres unmarked) [30a] | Inactive^d | > 100 | >300 | 90.9 | >90.9 | 2 (≈ 4.61 µM) | 1 (≈ 2.31 µM) | 2 (≈ 4.61 µM) | 4 (≈ 9.23 µM) | 2 (≈ 4.61 µM) | 1 (≈ 2.31 µM) | 2 (≈ 4.61 µM) | 8 (≈ 18.5 µM) | 4 (≈ 9.23 µM) | >64 | 2 (≈ 4.61 µM) |  | 
8 | CNC(=O)[C@@H](C)[C@H]1C(=O)/C(=C(O)/C=C/C(C)=C/[C@@H](C)[C@H]2O[C@@]3(C)O[C@H](C=C[C@@]34CO4)[C@@H]2C)C(=O)N1[C@@H]1CC[C@H](O)[C@H](C)O1 [streptolydigin, reference compound] |  |  |  |  |  |  |  |  |  |  |  |  |  |  |  |  | 38 | 

Reference: patent US9765069B2, “Antimicrobial compounds” (OXFORD UNIVERSITY INNOVATION LIMITED, priority 2012, dated 2017)
